Structures are written as SMILES. Several values for one entry are separate records, joined by “and”; a condition that tells them apart may be missing. Identical values can stand only once. Toxic doses and inconclusive results are not listed.

The experiment has as its system P388 leukemia ip, CD2F1 mice, survival T/C. The experiment is described as follows: NCI In Vivo Anticancer Drug Screen. Data for tumor model P388 Leukemia (intraperitoneal) in CD2F1 (CDF1) mice. The following applies: endpoint: median survival time, higher = longer survival. In a few lines:
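Mice carrying the transplanted tumor received test compound or vehicle. Survival was recorded in each group, and the value is the treated-group measurement divided by that of the vehicle-treated control group.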

The mark [1] stands for this setting: dose: 25.0 mg/kg/injection, schedule: Q04DX002 (ip), vehicle: saline with Tween-80.
The mark [2] stands for this setting: dose: 50.0 mg/kg/injection, schedule: Q04DX002 (ip), vehicle: saline with Tween-80.
Where [3] appears, read: dose: 100.0 mg/kg/injection, schedule: Q04DX002 (ip), vehicle: saline with Tween-80.
The mark [4] stands for this setting: dose: 100.0 mg/kg/injection, schedule: Q04DX003 (ip), vehicle: Klucel (hydroxypropylcellulose) (HPC).
The mark [5] stands for this setting: dose: 50.0 mg/kg/injection, schedule: Q01DX009 (ip), vehicle: Klucel (hydroxypropylcellulose) (HPC).
Setting [6] is: dose: 100.0 mg/kg/injection, schedule: Q01DX009 (ip), vehicle: Klucel (hydroxypropylcellulose) (HPC).
[7] abbreviates: dose: 200.0 mg/kg/injection, schedule: Q01DX009 (ip), vehicle: Klucel (hydroxypropylcellulose) (HPC).

Turning to `CN=C(N)N/N=C/c1c2ccccc2cc2ccccc12`, the T/C by setting is: under setting [1], 115 % of control; under setting [2], 111 % of control; under setting [3], 114 % of control.

Consider `Oc1c(Cl)cc(Cl)cc1C=Nc1ccc2c(ccc3c4ccccc4ccc23)c1`, for which the T/C (dose: 25.0 mg/kg/injection, schedule: Q04DX003 (ip), vehicle: Klucel (hydroxypropylcellulose) (HPC)) is 105 % of control; the T/C (dose: 50.0 mg/kg/injection, schedule: Q04DX003 (ip), vehicle: Klucel (hydroxypropylcellulose) (HPC)) was 105 % of control; the T/C under setting [4] is 109 % of control and 86 % of control.

Consider `CCCCCCCCCCCCCCCC[n+]1cccc(C(=O)NCO)c1`, for which the T/C was 100 % of control (dose: 6.25 mg/kg/injection, schedule: Q01DX009 (ip), vehicle: saline with Tween-80); 104 % of control (dose: 12.5 mg/kg/injection, schedule: Q01DX009 (ip), vehicle: saline with Tween-80); 104 % of control (dose: 25.0 mg/kg/injection, schedule: Q01DX009 (ip), vehicle: saline with Tween-80).

`COc1ccc(Cc2nccc3cc(OC)c(OC)cc23)cc1OC`: the T/C by setting is: (dose: 12.5 mg/kg/injection, schedule: Q01DX009 (ip), vehicle: saline) 104 % of control; (dose: 50.0 mg/kg/injection, schedule: Q01DX009 (ip), vehicle: saline) 109 % of control.

As to `COc1cc2c(c(OC)c1OC)CCCC2=O`, the T/C is, setting by setting: under setting [5], 111 % of control; under setting [6], 113 % of control; under setting [7], 117 % of control.

As to `COc1ccc(-n2c(C)nc3ccccc3c2=O)cc1CN(CCCl)CCCl`, the T/C reads like this: under setting [1], 97 % of control; under setting [2], 109 % of control; under setting [3], 100 % of control.

Regarding `O=C(CCc1ccc(O)c(O)c1)c1ccc(O)c(O)c1O`, the T/C is, setting by setting: (dose: 4.0 mg/kg/injection, schedule: Q01DX009 (ip), vehicle: saline) 111 % of control; (dose: 8.0 mg/kg/injection, schedule: Q01DX009 (ip), vehicle: saline) 104 % of control; (dose: 16.0 mg/kg/injection, schedule: Q01DX009 (ip), vehicle: saline) 102 % of control; (dose: 32.0 mg/kg/injection, schedule: Q01DX009 (ip), vehicle: saline) 114 % of control.

For the molecule `CCCCS(=O)CC(CO)NC(=O)/C=C/c1c(C)[nH]c(=O)[nH]c1=O` (centres undefined), the T/C is 89 % of control (dose: 0.08 mg/kg/injection, schedule: Q01DX009 (ip), vehicle: Klucel (hydroxypropylcellulose) (HPC)); 86 % of control (dose: 0.15 mg/kg/injection, schedule: Q01DX009 (ip), vehicle: Klucel (hydroxypropylcellulose) (HPC)); 103 % of control (dose: 0.3 mg/kg/injection, schedule: Q01DX009 (ip), vehicle: Klucel (hydroxypropylcellulose) (HPC)); 112 % of control (dose: 0.6 mg/kg/injection, schedule: Q01DX009 (ip), vehicle: Klucel (hydroxypropylcellulose) (HPC)); 122 % of control (dose: 0.6 mg/kg/injection, schedule: Q01DX009 (ip), vehicle: water); 153 % of control (dose: 4.8 mg/kg/injection, schedule: Q01DX009 (ip), vehicle: water). Moreover, for the setting “dose: 5.0 mg/kg/injection, schedule: Q01DX009 (ip), vehicle: water”, the T/C is 161 % of control.

As for `O=C1c2ccccc2C(=O)C2C(=O)c3ccccc3C(=O)C12` (centres undefined), the T/C is, setting by setting: (dose: 50.0 mg/kg/injection, schedule: Q01DX005 (ip), vehicle: saline with Tween-80) 95 % of control; (dose: 100.0 mg/kg/injection, schedule: Q01DX005 (ip), vehicle: saline with Tween-80) 95 % of control; (dose: 200.0 mg/kg/injection, schedule: Q01DX005 (ip), vehicle: saline with Tween-80) 103 % of control.

As to `Cc1[nH]c(=O)[nH]c(=O)c1/C=C/C(=O)NC(CO)CS(=O)CS(C)=O` (centres undefined), the T/C is 119 % of control (dose: 1.2 mg/kg/injection, schedule: Q01DX009 (ip), vehicle: water); 122 % of control (dose: 2.2 mg/kg/injection, schedule: Q01DX009 (ip), vehicle: water); 119 % of control (dose: 2.4 mg/kg/injection, schedule: Q01DX009 (ip), vehicle: water).

Turning to `COC1=CC(=O)C(c2cc(OC(C)=O)c(OC)cc2OC(C)=O)=CC1=O`, the T/C is 108 % of control (dose: 6.0 mg/kg/injection, schedule: Q01DX005 (ip), vehicle: saline + Tween-80 + alcohol); 100 % of control (dose: 12.0 mg/kg/injection, schedule: Q01DX005 (ip), vehicle: saline + Tween-80 + alcohol); 105 % of control (dose: 25.0 mg/kg/injection, schedule: Q01DX005 (ip), vehicle: saline + Tween-80 + alcohol).

For `COc1cccc2c1C(=O)c1c(O)c3c(c(O)c1C2=O)CC(NO)CC3OC1CC(NC(=O)C(F)(F)F)C(O)C(C)O1` (centres undefined), the T/C (dose: 1.56 mg/kg/injection, schedule: Q01DX009 (ip), vehicle: other) was 103 % of control and 101 % of control; the T/C (dose: 3.13 mg/kg/injection, schedule: Q01DX009 (ip), vehicle: other) is 104 % of control and 106 % of control; the T/C (dose: 6.25 mg/kg/injection, schedule: Q01DX009 (ip), vehicle: other) is 108 % of control and 110 % of control; the T/C (dose: 12.5 mg/kg/injection, schedule: Q01DX009 (ip), vehicle: other) was 113 % of control; the T/C (dose: 25.0 mg/kg/injection, schedule: Q01DX009 (ip), vehicle: other) is 116 % of control and 107 % of control.

Regarding `O=c1cc(-c2ccccc2)oc2c1CCCC2`, the T/C (dose: 50.0 mg/kg/injection, schedule: Q01DX005 (ip), vehicle: Klucel (hydroxypropylcellulose) (HPC)) is 101 % of control; the T/C (dose: 100.0 mg/kg/injection, schedule: Q01DX005 (ip), vehicle: Klucel (hydroxypropylcellulose) (HPC)) was 97 % of control; the T/C (dose: 200.0 mg/kg/injection, schedule: Q01DX005 (ip), vehicle: Klucel (hydroxypropylcellulose) (HPC)) was 101 % of control.

Consider `O=[N+]([O-])c1csc([N+](=O)[O-])c1`, for which the T/C runs as follows: (dose: 9.37 mg/kg/injection, schedule: Q01DX009 (ip), vehicle: saline with Tween-80) 109 % of control; (dose: 18.75 mg/kg/injection, schedule: Q01DX009 (ip), vehicle: saline with Tween-80) 118 % of control; (dose: 37.5 mg/kg/injection, schedule: Q01DX009 (ip), vehicle: saline with Tween-80) 122 % of control; (dose: 75.0 mg/kg/injection, schedule: Q04DX003 (ip), vehicle: saline with Tween-80) 100 % of control; (dose: 150.0 mg/kg/injection, schedule: Q04DX003 (ip), vehicle: saline with Tween-80) 100 % of control; (dose: 300.0 mg/kg/injection, schedule: Q04DX003 (ip), vehicle: saline with Tween-80) 109 % of control.

As to `Nc1cc2c(cc1C=O)OCO2`, the T/C was 99 % of control under setting [4]; 93 % of control (dose: 200.0 mg/kg/injection, schedule: Q04DX003 (ip), vehicle: Klucel (hydroxypropylcellulose) (HPC)); 107 % of control (dose: 400.0 mg/kg/injection, schedule: Q04DX003 (ip), vehicle: Klucel (hydroxypropylcellulose) (HPC)).

As to `CSC(=Nc1ccc(N(C)C)cc1)NC#N`, the T/C is, setting by setting: under setting [5], 106 % of control; under setting [6], 103 % of control; under setting [7], 92 % of control.

On to `COc1c2ccc(OCC=C(C)C)cc2nc2occc12`, for which the T/C by setting is: (dose: 7.0 mg/kg/injection, schedule: Q01DX005 (ip), vehicle: Klucel + Tween-80) 106 % of control; (dose: 14.0 mg/kg/injection, schedule: Q01DX005 (ip), vehicle: Klucel + Tween-80) 103 % of control; (dose: 28.0 mg/kg/injection, schedule: Q01DX005 (ip), vehicle: Klucel + Tween-80) 99 % of control; (dose: 56.0 mg/kg/injection, schedule: Q01DX005 (ip), vehicle: Klucel + Tween-80) 103 % of control.

Turning to `NNc1nn2cnnc2c2ccccc12`, the T/C reads like this: (dose: 6.25 mg/kg/injection, schedule: Q04DX002 (ip), vehicle: saline) 100 % of control and 96 % of control; (dose: 12.5 mg/kg/injection, schedule: Q04DX002 (ip), vehicle: saline) 98 % of control and 99 % of control and 96 % of control; (dose: 25.0 mg/kg/injection, schedule: Q04DX002 (ip), vehicle: saline) 100 % of control and 122 % of control and 97 % of control; (dose: 50.0 mg/kg/injection, schedule: Q04DX002 (ip), vehicle: saline) 101 % of control and 104 % of control and 94 % of control; (dose: 400.0 mg/kg/injection, schedule: Q04DX002 (ip), vehicle: saline) 88 % of control.

Regarding `CCC1=C[C@H]2CN(CCc3c([nH]c4ccccc34)[C@@](C(=O)OC)(c3cc4c(cc3OC)N(C)[C@H]3[C@@](O)(C(=O)NN)[C@H](O)[C@]5(CC)C=CCN6CC[C@]43[C@@H]65)C2)C1`, the T/C was 174 % of control (dose: 0.5 mg/kg/injection, schedule: Q01DX001 (ip), vehicle: water); 164 % of control and 175 % of control (dose: 1.0 mg/kg/injection, schedule: Q01DX001 (ip), vehicle: water); 183 % of control and 193 % of control (dose: 2.0 mg/kg/injection, schedule: Q01DX001 (ip), vehicle: water).

The values are drawn from PubChem BioAssay AID330 (DTP/NCI, 2004).
